The results in this text go back to patent publication US11560370B1, “5-membered heteroaryl carboxamide compounds for treatment of HBV” (Assembly Biosciences, Inc., priority 2018, dated 2023).

Like-named read-outs stand apart in the source and are kept apart here.

The test system of the experiment is HBV. Put plainly: Viral production from HepAD38 cells, viral load by qPCR of HBV core sequence. It counts as cell-based. To be noted: 5 days, supernatant HBV DNA by qPCR, read-out: Viral Load EC50 Activity range. The method, then:
Assay Measuring Activity of Test Compounds on Viral Production from HepAD38 Cells
HepAD38 cells grown in a T-150 flask (Corning, cat #: 430825) with Growth Medium (DMEM/F12 (1:1) (Hyclone, cat #: SH30023.02), 1× Pen/Strep (Invitrogen, cat #: 15140-122), 10% FBS (Tissue Culture Biologics, cat #: 101), 250 μg/mL G418 (Alfa Aesar, cat #: J62671), 1 μg/mL Tetracycline (Teknova, cat #: T3320)) were detached with 0.25% trypsin-EDTA to (Invitrogen, cat #: 25200-056). Tetracycline-free treatment medium (15 mL DMEM/F12 (1:1) 1× Pen/step, with 2% FBS, Tet-system approved (Clontech, cat #: 631106) were then added to mix, transferred into a 50 ml conical tube (Falcon, cat #: 21008-918,) and spun at 1300 rpm for 5 min. Pelleted cells were then re-suspended/washed with 50 mL of 1×DPBS (Invitrogen, cat #: 14190-136) 2 times and 50 mL treatment medium twice. HepAD38 cells were then re-suspended with 10 mL of treatment medium, syringed and counted. Wells of 96-well clear bottom TC plate (Corning, cat #: 3904,) were seeded at 50,000 cells/well in 180 μL of treatment medium, and 20 μL of either 10% DMSO (Sigma, cat #: D4540) as controls or a 10× solution of test compounds in 10% DMSO in treatment media was added for a final compound concentration starting at 10 μM, and plates were incubated in 5% CO2 incubator at 37° C. for 5 days.
Subsequently viral load production was assayed by quantitative PCR (qPCR) of the HBV core sequence. PCR reaction mixture containing forward primers HBV-f 5′-CTGTGCCTTGGGTGGCTTT-3′ (IDT DNA), Reverse primers HBV-r 5′-[…]-3′ (IDT DNA), Fluorescent TaqMan™ Probes HBV-probe 5′-FAM/AGCTCCAAA/ZEN/[…]/3IABkFQ-3′ (IDT DNA), 10 μL/well of PerfeCTa® qPCR ToughMix® (Quanta Biosciences, Cat #: 95114-05K), and 6 μL/well of DEPC water (Alfa Aesar, cat #: J62087) was prepared. […] of supernatant was added to 16 μL of the reaction mixture in a qPCR plate (Applied Biosytems, Cat #: 4309849), sealed with a film (Applied Biosystems, Cat #: 4311971), centrifuged for a few seconds, and subsequently run on an Applied Biosystems VIIA7. The PCR mixture was incubated at 45° C. for 5 min, then 95° C. for 10 min, followed by 40 cycles of 10 seconds at 95° C. and 20 seconds at 60° C. Viral load was quantified against known HBV DNA standards by using ViiA™ 7 Software. Viral load in the supernatant from wells with treated cells were compared against viral load in supernatant from DMSO control wells (>3 per plate). Cell viability assay was performed with CellTiter-Glo Luminescent Cell Viability Assay (Promega, cat #: G7573) with modification. Mixed appropriate amount of CellTiter-Glo (CTG) 1×DPBS in a 1:1 ratio, added 100 uL of the mixture to each well followed completely removal of all supernatant in each well without touching cell surface. Incubated the plate at room temperature for 10 min on an orbital shaker, and then read the plate with a plate reader (TECAN M1000 or Envision). EC50 or CC50 values were calculated through curve-fitting of the four-parameter nonlinear-logistic-regression model (GraphPad Prism or Dotmatics). CC50 values were all >10 μM.
Background: Real-time PCR tracks product formation cycle by cycle.

Setting [1] is: Hepatitis B virus, HePAD38, 120 h.

As for `COc1cc(-c2ncc[nH]2)ccc1C1CCC(c2nn(C)c(N)c2C(=O)Nc2ccc(F)c(Cl)c2)C1` (single isomer, unassigned) [AIA-352-1, 3-(3-(4-(1H-Imidazol-2-yl)-2-methoxyphenyl)cyclopentyl)-5-amino-N-(3-chloro-4-fluorophenyl)-1-methyl-1H-pyrazole-4-carboxamide], the EC50 was 500 to 10000 nM. With `Cn1cc(C2CC3CC(c4nn(C)c(N)c4C(=O)Nc4ccc(F)c(Cl)c4)CC3C2)cn1` (centres unmarked) [AIA-049], the EC50 is < 100 nM. With `Cn1nc(C2CCC(c3cccnc3)C2)c(C(=O)Nc2ccc(F)c(Cl)c2)c1N` (centres unmarked) [CP-AIA-270, 5-Amino-N-(3-chloro-4-fluorophenyl)-1-methyl-3-(3-(pyridin-3-yl)cyclopentyl)-1H-pyrazole-4-carboxamide], the EC50 under setting [1] was < 100 nM. Turning to `Cn1nc(C2CC3CC(O)(C(=O)NC4CC4)CC3C2)c(C(=O)Nc2ccc(F)c(Cl)c2)c1N` (centres unmarked) [AIA-274-2, 5-Amino-N-(3-chloro-4-fluorophenyl)-3-(5-(cyclopropylcarbamoyl)-5-hydroxyoctahydropentalen-2-yl)-1-methyl-1H-pyrazole-4-carboxamide], the EC50 is < 100 nM.

Consider `Cn1nc(C2CC3CC(S(C)(=O)=O)CC3C2)c(C(=O)Nc2ccc(F)c(Cl)c2)c1N` (centres unmarked) [AIA-030], for which the EC50 was < 100 nM. Still for that read-out and setting: then `CNC1CC2CC(c3nn(C)c(N)c3C(=O)Nc3ccc(F)c(Cl)c3)CC2C1` (centres unmarked) [AIA-102], with 100 to 500 nM. `Cn1cc(C2CCC(c3nn(C)c(N)c3C(=O)Nc3ccc(F)c(Cl)c3)C2)cn1` (single isomer, unassigned) [AIA-004-B, 5-Amino-N-(3-chloro-4-fluorophenyl)-1-methyl-3-(3-(1-methyl-1H-pyrazol-4-yl)cyclopentyl)-1H-pyrazole-4-carboxamide]: under setting [1], the EC50 fell in the range of 100 to 500 nM. As to `Cn1nc(C2CC3CC4(CNC(=O)C4)CC3C2)c(C(=O)Nc2ccc(F)c(Cl)c2)c1N` (centres unmarked) [HBV-AIA-039], the EC50 was < 100 nM. Turning to `Cn1nc(C2CC3CC(N4CCC4)CC3C2)c(C(=O)Nc2ccc(F)c(Cl)c2)c1N` (centres unmarked) [AIA-013, 5-Amino-3-(5-(azetidin-1-yl)octahydropentalen-2-yl)-N-(3-chloro-4-fluorophenyl)-1-methyl-1H-pyrazole-4-carboxamide], the EC50 under setting [1] lay within 100 to 500 nM. Regarding `Cn1nc(C2CC3CC(CC(N)=O)CC3C2)c(C(=O)Nc2ccc(F)c(Cl)c2)c1N` (centres unmarked) [AIA-021, 5-Amino-3-(5-(2-amino-2-oxoethyl)octahydropentalen-2-yl)-N-(3-chloro-4-fluorophenyl)-1-methyl-1H-pyrazole-4-carboxamide], under setting [1], the EC50 is < 100 nM.

Consider `Cn1nc(C2CC3C[S+]([O-])CC3C2)c(C(=O)Nc2ccc(F)c(Cl)c2)c1N` (single isomer, unassigned) [AIA-056-A, 5-Amino-N-(3-chloro-4-fluorophenyl)-1-methyl-3-(2-oxidohexahydro-1H-cyclopenta[c]thiophen-5-yl)-1H-pyrazole-4-carboxamide], for which the EC50 under setting [1] lay within 500 to 10000 nM.

For `Cn1nc(C2CC3CN(C(=O)N4CCCC4)CC3C2)c(C(=O)Nc2ccc(F)c(Cl)c2)c1N` (centres unmarked) [AIA-025, 5-Amino-N-(3-chloro-4-fluorophenyl)-1-methyl-3-(2-(pyrrolidine-1-carbonyl)octahydrocyclopenta[c]pyrrol-5-yl)-1H-pyrazole-4-carboxamide], under setting [1], the EC50 is < 100 nM. Take `COC1CC2CC(c3nn(C)c(N)c3C(=O)Nc3ccc(F)c(Cl)c3)CC2C1` (centres unmarked) [AIA-285]: the EC50 was < 100 nM. With `COc1ccc([C@@H]2CC[C@H](c3nn(C)c(N)c3C(=O)Nc3ccc(F)c(Cl)c3)C2)cc1` [AIA-003-C, 5-Amino-N-(3-chloro-4-fluorophenyl)-3-((1S,3R)-3-(4-methoxyphenyl)cyclopentyl)-1-methyl-1H-pyrazole-4-carboxamide], the EC50 under setting [1] lay within 100 to 500 nM. As for `Cn1nc(C2CC3CC(O)(CN4CCCCC4)CC3C2)c(C(=O)Nc2ccc(F)c(Cl)c2)c1N` (single isomer, unassigned) [AIA-363-1, 5-Amino-N-(3-chloro-4-fluorophenyl)-3-(5-hydroxy-5-(piperidin-1-ylmethyl)octahydropentalen-2-yl)-1-methyl-1H-pyrazole-4-carboxamide], under setting [1], the EC50 was in the range of 100 to 500 nM.

For the molecule `Cn1nc(C2CCC(c3ccc(OC(F)(F)F)cc3)C2)c(C(=O)Nc2ccc(F)c(Cl)c2)c1N` (centres unmarked) [AIA-292, 5-Amino-N-(3-chloro-4-fluorophenyl)-1-methyl-3-(3-(4-(trifluoromethoxy)phenyl)cyclopentyl)-1H-pyrazole-4-carboxamide], under setting [1], the EC50 was 500 to 10000 nM.

With `Cn1nc([C@@H]2CC3CC(O)(CS(C)(=O)=O)C[C@@H]3C2)c(C(=O)Nc2ccc(F)c(Cl)c2)c1N` (some centres unmarked) [AIA-227-1, 5-Amino-N-(3-chloro-4-fluorophenyl)-3-((2r,5r)-5-hydroxy-5-(methylsulfonylmethyl)octahydropentalen-2-yl)-1-methyl-1H-pyrazole-4-carboxamide], the EC50 is < 100 nM. As to `Cn1nc(C2CC(c3ccccc3)C2)c(C(=O)Nc2ccc(F)c(Cl)c2)c1N` (single isomer, unassigned) [AIA-224B, 5-Amino-N-(3-chloro-4-fluorophenyl)-1-methyl-3-(3-phenylcyclobutyl)-1H-pyrazole-4-carboxamide], the EC50 under setting [1] is 100 to 500 nM. For the molecule `Cn1nc(C2CC3CC4(CC3C2)OCCO4)c(C(=O)Nc2ccc(F)c(Cl)c2)c1N` (centres unmarked) [AIA-290], the EC50 was < 100 nM. As to `COc1cc(-c2nccs2)ccc1C1CCC(c2nn(C)c(N)c2C(=O)Nc2ccc(F)c(Cl)c2)C1` (centres unmarked) [AIA-371, 5-Amino-N-(3-chloro-4-fluorophenyl)-3-(3-(2-methoxy-4-(thiazol-2-yl)phenyl)cyclopentyl)-1-methyl-1H-pyrazole-4-carboxamide], the EC50 under setting [1] lay in the range of 500 to 10000 nM. Still for that read-out and setting: under `Cn1nc(C2CC3CN(S(C)(=O)=O)CC3C2)c(C(=O)Nc2ccc(F)c(Cl)c2)c1N` (centres unmarked) [AIA-024, 5-Amino-N-(3-chloro-4-fluorophenyl)-1-methyl-3-(2-(methylsulfonyl)octa hydrocyclopenta[c]pyrrol-5-yl)-1H-pyrazole-4-carboxamide] stands < 100 nM.

With `Cn1nc(C2CC3CNC(=O)CC3C2)c(C(=O)Nc2ccc(F)c(Cl)c2)c1N` (single isomer, unassigned) [AIA-033-B, 5-Amino-N-(3-chloro-4-fluorophenyl)-1-methyl-3-(3-oxooctahydro-1H-cyclopenta[c]pyridin-6-yl)-1H-pyrazole-4-carboxamide], the EC50 is < 100 nM. With `CC[S+]([O-])C1CC2CC(c3nn(C)c(N)c3C(=O)Nc3ccc(F)c(Cl)c3)CC2C1` (centres unmarked) [AIA-075, 5-Amino-N-(3-chloro-4-fluorophenyl)-3-(5-(ethylsulfinyl)octahydropentalen-2-yl)-1-methyl-1H-pyrazole-4-carboxamide], the half-maximal effective concentration (EC50) under setting [1] is < 100 nM. Consider `COc1cc(-c2cn(C)cn2)ccc1C1CCC(c2nn(C)c(N)c2C(=O)Nc2ccc(F)c(Cl)c2)C1` (single isomer, unassigned) [AIA-365-2, 5-Amino-N-(3-chloro-4-fluorophenyl)-3-(3-(2-methoxy-4-(1-methyl-1H-imidazol-4-yl)phenyl)cyclopentyl)-1-methyl-1H-pyrazole-4-carboxamide], for which, under setting [1], the EC50 was < 100 nM. `Cn1nc(C2CC3CC(NS(C)(=O)=O)CC3C2)c(C(=O)Nc2ccc(F)c(Cl)c2)c1N` (centres unmarked) [AIA-042]: the EC50 was < 100 nM. With `COCCOc1ccc(C2CCC(c3nn(C)c(N)c3C(=O)Nc3ccc(F)c(Cl)c3)C2)cc1` (centres unmarked) [AIA-297, 5-Amino-N-(3-chloro-4-fluorophenyl)-3-(3-(4-(2-methoxyethoxy)phenyl)cyclopentyl)-1-methyl-1H-pyrazole-4-carboxamide], the EC50 under setting [1] was < 100 nM.

One may read the EC50 as the concentration at which the effect is half-maximal.
